We go through 2 molecules from patent US20080200405A1, “Drug Resistance Reversal In Neoplastic Disease” (priority 2007, published 2008).

The structures appear in SMILES notation.

The subject of series [1] is H2O2-induced angiogenesis in the CAM model. Briefly: H2O2-induced angiogenesis in the CAM model. The class given is in vivo, chicken. The conditions noted are these: for % Inhibition ± SD / Branch pts ± SEM: H2O2 88 μM, 30 ng. As for the experimental part:
(§1) In vivo neovascularization was examined by the method previously described by Auerbach et al. (J. Dev. Biol. 41:391-394 (1974)). Ten-day old chicken embryos were purchased from Spafas, Inc. (Preston, Conn.) and were incubated at 37° C. with 55% relative humidity. In the dark, with the aid of a candling lamp, a small hole was punctured in the shell concealing the air sac with a hypodermic needle. A second hole was punctured in the shell on the broadside of the egg directly over an […] portion of the embryonic membrane, as observed during candling. An artificial air sac was created beneath the second hole by applying gentle vacuum to the first hole using a small rubber squeeze bulb. The vacuum caused the chorioallantoic membrane (CAM) to separate from the shell.
(§2) A pro-angiogenic agent was added to induce new blood vessel branches on the CAM of 10-day old embryos. Filter disks of #1 filter paper (Whatman International, United Kingdom) were punched using a small puncher and were soaked in 3 mg/mL cortisone acetate (Sigma, St. Louis, Mo.) in a solution (95% ethanol and water). The disks were subsequently air dried under sterile conditions. The disks were then suspended in PBS (Phosphate Buffered Saline) and placed on growing CAMs. Filters treated with TP-H (TEMPOL-H) or TEMPOL and/or H2O2 or TP-H and/or bFGF or VEGF were placed on the first day of the 3-day incubation.
(§3) The number of vessel branch points contained in a circular region equal to the area of a filter disk was counted for each section. Percent inhibition data are expressed as the quotient of the experimental value minus the negative control value divided by the difference between the positive control value and the negative control value. One image was counted in each CAM preparation, and findings from eight CAM preparations were analyzed for each treatment condition. In addition, each experiment was performed three times. The resulting angiogenesis index is the mean ±SEM (Standard Error of Measurement) of new branch points in each set of treatment. Statistical analysis of blood vessel branching patterns are performed by 1-way analysis of variance (ANOVA) comparing experimental with corresponding control groups. Statistical significance differences are assessed at P value of <0.05.
TP-H (TEMPOL-H, the hydroxylamine reduced form of the nitroxide 4-hydroxy-2,2,6,6-tetramethylpiperidin-1-yloxy) or TEMPOL (4-hydroxy-2,2,6,6-tetramethylpiperidine-N-oxyl radical) was applied to the CAM model study to determine its respective anti-angiogenesis effects according to the materials and methods provided in Example 1. H2O2 was used to induce angiogensis in the CAM model.

The subject of series [2] is VEGF-induced angiogenesis in the CAM model. As to the kind of experiment: VEGF-induced angiogenesis in the CAM model. In kind it is in vivo, chicken. The conditions noted are these: for Mean % Inhibition ± SD / Mean Branch points ± SD: VEGF 2 μg/ml. The procedure: as §1, §2, §3
TP-H was applied to the CAM model study to determine its respective anti-angiogenesis effects according to the materials and methods described above. VEGF was used to induce angiogenesis in the CAM model.

Series [3] in a line: In vitro stability in rat, rabbit, dog, and human plasma (overall statement). The conditions noted are these: 240 minute incubation in plasma. In kind it is in vitro ADME. The procedure:
The active metabolite of OT-551 (Cyclopropanecarboxylic acid 1-hydroxy-2,2,6,6-tetramethyl-piperidin-4-yl ester) is TP-H. The objective of this analysis was to determine the in vitro half-life of OT-551 in rat, rabbit, dog, and human plasma under standardized incubation conditions.
OT-551 was incubated with pooled rat, rabbit, dog, and human plasma for various times under standardized incubation conditions. Pre-labeled tubes containing pooled plasma from rats, rabbits, dogs, and humans were pre-incubated in a shaking 37° C. water bath. A OT-551 solution was added to the tubes at a final concentration of 1000 ng/mL. Time zero samples (n=5) were immediately removed and transferred into tubes containing a stabilizer solution (DTPA, acetylcysteine and ascorbic acid), the LC/MS/MS assay internal standard and methanol. […] The tubes were vortexed, placed on ice, followed by centrifugation. One hundred-μL aliquots of the supernatant were transferred into HPLC sample vials. Additional tubes (n=5 at each time point) were incubated for 5, 10, 20, 30, 60, 120, and 240 minutes at 37° C. and thereafter processed. The amount of OT-551 and TP-H in each incubated sample was quantified using validated LC/MS/MS assays.

For series [4], the system named is selenite induced cataract. As to the kind of experiment: Selenite induced cataract in mice. The conditions noted are these: mouse, in vivo. The text has this: In addition, as mentioned above, there is no precedent for the prevention of growth factor-induced angiogenesis by either TEMPOL or hydroxylamines.
A further series concerns mouse V79 cells. The conditions noted are these: cited from earlier work.
For series [5], the system named is drug sensitive and resistant cell lines SKN-SH, Neuro2A, Saos2, HL-60. As to the kind of experiment: Reversal of drug resistance in various cancer types (OT-551 with or without doxorubicin). The class given is cell-based, human, murine. The following applies: in combination with doxorubicin; 96 hours. The procedure: This example illustrates that OT-551 and analogs reverse drug resistance to non-anthracycline drugs in various cancer types. The effects of analogs were tested on drug sensitive and resistant (R) cell lines corresponding to various cancer types, including the human neuroblastoma cell line SKN-SH (ATCC Cat. No. HTB-1), the murine neuroblastoma cell line Neuro2A (ATCC Cat. No. CCL-131), the osteosarcoma cells Saos2 (ATCC Cat. No. HTB-85) and the leukemia cell line HL-60 (ATCC Cat. No. CCL240). The cells were treated with OT-551 with or without doxorubicin as described above. Cell viability was calculated after 96 hours of incubation with the drug combination.

A short description of series [6]: Ocular permeability and retina levels after topical administration. The class given is in vivo.

For the molecule `CC1(C)CC(O)CC(C)(C)N1O` [TEMPOL-H], the “% Inhibition ± SD” value was found to be 28.0 ± 13.6 % in series [1] (100 μg), 32.9 ± 8.4 % in series [1] (200 μg), 44.7 ± 6.6 % in series [1] (400 μg) and 55.7 ± 7.2 % in series [1] (800 μg). Moreover, the “Branch pts ± SEM” value was 155 ± 14.4 in series [1] (100 μg), 151.3 ± 15.3 in series [1] (200 μg), 137.2 ± 6.9 in series [1] (400 μg) and 127.3 ± 6.4 in series [1] (800 μg). Besides, the “inhibition of angiogenesis induced by super-maximal concentrations of H2O2” value in series [1] (in vivo) is on record as “effectively inhibited”. For the same molecule, the “Mean % Inhibition ± SD” value was 37.6 ± 6.9 % in series [2] (100 μg), 42 ± 3.5 % in series [2] (200 μg), 53.3 ± 3.3 % in series [2] (400 μg) and 70.7 ± 9.1 % in series [2] (800 μg). Moreover, the “Mean Branch points ± SD” value is 154.8 ± 7.5 in series [2] (100 μg), 150 ± 3.8 in series [2] (200 μg), 137.8 ± 3.0 in series [2] (400 μg) and 118.8 ± 9.9 in series [2] (800 μg). Further, the “inhibition of VEGF-induced angiogenesis” value in series [2] (in vivo) is reported as “dose-dependent inhibition”. In addition, the “stability of TP-H during the incubation period” value in series [3] is “stable during the 240 minute incubation period”. In addition, the “prevention of selenite induced cataract” value in series [4] was “effective”. Moreover, the “radioprotection of mouse V79 cells” value in the series on mouse V79 cells is on record as “did not provide any radioprotection”.
As to `CC1(C)CC(OC(=O)C2CC2)CC(C)(C)N1O.Cl` [OT-551, 1-hydroxy-4-cyclopropanecarbonyloxy-2,2,6,6-tetramethylpiperidine hydrochloride], the “effect on doxorubicin toxicity” value in series [5] is “able to enhance doxorubicin toxicity in all the drug resistant cell lines tested”. The “levels in the retina” value in series [6] (after topical administration) is on record as “good levels in the retina”. Also, the “permeability through the cornea” value in series [6] (in vivo) is listed as “good permeability through the cornea”.
